Test results as given in paper PMC12318229, “RACK1A positively regulates opening of the apical hook in Arabidopsis thaliana via suppression of its auxin response gradient” (Proceedings of the National Academy of Sciences of the …, 2025).

Biological target: T1, RACK1A (RECEPTOR FOR ACTIVATED C KINASE 1A) (Arabidopsis thaliana, UniProt O24456)
T1 construct: WD40 seven-bladed beta-propeller scaffold protein
Experiment: microscale thermophoresis (MST)
Format: binding

T1 sequence (O24456 whole entry): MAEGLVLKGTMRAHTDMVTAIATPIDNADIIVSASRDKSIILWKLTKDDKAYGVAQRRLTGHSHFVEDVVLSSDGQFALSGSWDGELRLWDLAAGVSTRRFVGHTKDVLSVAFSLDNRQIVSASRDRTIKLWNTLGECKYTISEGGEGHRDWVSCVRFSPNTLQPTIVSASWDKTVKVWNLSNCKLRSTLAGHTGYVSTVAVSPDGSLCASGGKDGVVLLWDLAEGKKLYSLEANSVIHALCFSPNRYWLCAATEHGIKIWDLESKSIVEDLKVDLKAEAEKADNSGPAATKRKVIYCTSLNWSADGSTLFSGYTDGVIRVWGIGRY

Kd: 32.8 ± 15.7 µM
SMILES: COc1cc(OC)cc(C(=O)Nc2ccc3ccccc3c2)c1 [DAPIA]
